The record followed here is patent US12679878B2, “CRF2 receptor agonists and their use in therapy” (SANOFI, priority 2020, dated 2026).

In experiment [1] the target is T1, human CRF2α receptor (Homo sapiens, UniProt Q13324).
T1 construct: expressed in transfected cells; host or cells: TeloHEAC
T1 sequence (Q13324 1-411): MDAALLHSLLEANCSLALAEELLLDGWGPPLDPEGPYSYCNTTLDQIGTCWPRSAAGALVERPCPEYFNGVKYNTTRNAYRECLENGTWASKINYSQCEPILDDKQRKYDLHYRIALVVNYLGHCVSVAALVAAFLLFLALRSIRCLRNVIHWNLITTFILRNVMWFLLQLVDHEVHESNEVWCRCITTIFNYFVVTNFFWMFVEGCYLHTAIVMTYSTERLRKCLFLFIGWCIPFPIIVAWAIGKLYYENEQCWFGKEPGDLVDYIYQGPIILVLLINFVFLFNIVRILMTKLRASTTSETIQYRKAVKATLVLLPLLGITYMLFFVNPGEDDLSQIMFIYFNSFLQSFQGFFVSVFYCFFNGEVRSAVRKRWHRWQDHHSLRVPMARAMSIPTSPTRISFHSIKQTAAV
Description: cAMP agonism at human CRF2 α receptor in TeloHEAC cells (Example 7). In kind it is cell-based. As to conditions: cAMP HTRF, TeloHEAC cells stably expressing human CRF2 α. The procedure, abridged:
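Thawed frozen stably transfected cells in HBSS/20 mM HEPES (0% or 0.1% HSA) plus 2 mM IBMX were exposed to compound at 2000 cells/well for 30 min at room temperature. Intracellular cAMP was read by HTRF (665/620 nm ratio) after 1 h lysis; EC50 was derived with 1000 nM urocortin 2 set as 100%.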

The target of experiment [2] is T2, CRF1R receptor (Homo sapiens, UniProt P34998).
T2 construct: host or cells: CHO-K1 clone 2
T2 sequence (P34998 24-415): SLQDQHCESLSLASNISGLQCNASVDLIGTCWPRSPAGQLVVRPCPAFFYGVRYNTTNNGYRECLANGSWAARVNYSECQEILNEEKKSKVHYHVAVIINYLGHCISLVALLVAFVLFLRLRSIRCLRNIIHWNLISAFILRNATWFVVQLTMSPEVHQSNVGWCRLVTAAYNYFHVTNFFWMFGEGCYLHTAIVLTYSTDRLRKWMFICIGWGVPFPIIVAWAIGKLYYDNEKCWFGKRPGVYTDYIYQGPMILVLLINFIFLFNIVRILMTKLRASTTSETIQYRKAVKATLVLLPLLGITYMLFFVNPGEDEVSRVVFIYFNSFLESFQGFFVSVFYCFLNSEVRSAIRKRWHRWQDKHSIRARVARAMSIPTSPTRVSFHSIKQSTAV
Description: cAMP activity at anti-target CRF1R, CHO-K1 cell line clone 2 (Example 19.10). It is filed as cell-based. As to conditions: CRF1R CHO-K1 clone 2; for EC50: 0% HSA, read-out: EC50 [nM] 0% HSA; for Emax: 100% = Sauvagine at 100 nM. The procedure, abridged:
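The cAMP read-out used the same protocol as the previous assay, except that Sauvagine at 100 nM set the 100% activation control. Cells were CHO-K1 clone 2 overexpressing CRF1R, cultured in F12 medium with 10% FBS and G418 and stored frozen until use.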

Setting [3] is: 0% HSA, read-out: EC50 [nM], 0% HSA.
The mark [4] stands for this setting: 0.1% HSA, read-out: EC50 [nM], 0.1% HSA.

Read-outs that look alike come from different tables or passages of the source. Starred links: 1 amine or outer side, 2 acyl side, 3 side chain; linkers in the order of their positions; H or OH if unused. Non-standard residues stand in square brackets, D forms with d. Residues, ends and D or L forms follow the SMILES beside them. Groups on a side chain read outwards from the residue. *: point of attachment. C18 diacid = O=C(O)CCCCCCCCCCCCCCCCC(=O)*; γGlu = O=C(O)[C@H](CCC(=O)[*:2])N[*:1]; AEEA = NCCOCCOCC(=O)O; Aib = CC(C)(N)C(=O)O Where only a bound is given, the exact number is not on record here.

Take `CC[C@H](C)[C@H](N)C(=O)N[C@H](C(=O)N[C@@H](CC(C)C)C(=O)N[C@@H](CO)C(=O)N[C@@H](CC(C)C)C(=O)N[C@@H](CC(=O)O)C(=O)N[C@@H](C(=O)N1CCC[C@H]1C(=O)N[C@H](C(=O)N[C@@H](CCCCN)C(=O)N[C@@H](CC(C)C)C(=O)N[C@@H](CCCCNC(=O)COCCOCCNC(=O)COCCOCCNC(=O)CC[C@H](NC(=O)CCCCCCCCCCCCCCCCC(=O)O)C(=O)O)C(=O)N[C@@H](CCC(N)=O)C(=O)N[C@H](C(=O)N[C@@H](CC(C)C)C(=O)N[C@@H](CC(C)C)C(=O)N[C@@H](CCC(=O)O)C(=O)N[C@@H](CCC(N)=O)C(=O)N[C@@H](C)C(=O)N[C@@H](CCCCN)C(=O)N[C@@H](CCC(N)=O)C(=O)N[C@@H](CCCCN)C(=O)NC(C)(C)C(=O)N[C@@H](CCC(N)=O)C(=O)N[C@@H](CCCNC(=N)N)C(=O)N[C@@H](C)C(=O)N[C@@H](CCC(N)=O)C(=O)N[C@@H](C)C(=O)N[C@@H](CCC(=O)O)C(=O)N[C@@H](CCCCN)C(=O)N[C@@H](CC(N)=O)C(=O)N[C@@H](CCCCN)C(=O)N[C@@H](CCCNC(=N)N)C(=O)N[C@H](C(=O)N[C@@H](CC(C)C)C(=O)N[C@@H](CCC(=O)O)C(=O)N[C@@H](CCCNC(=N)N)C(=O)N[C@H](C(N)=O)C(C)C)[C@@H](C)CC)[C@@H](C)CC)[C@@H](C)CC)C(C)C)C(C)C` [compound 126] (H-IVLSLD[dV]PIKLK([AEEA-AEEA-γGlu-C18 diacid])QILLEQAKQK[Aib]QRAQAEKNKRILERV-NH2; N-terminus assumed): the EC50 in experiment [1] (setting [3]) was 0.22 nM; in experiment [1] (setting [4]), 5.59 nM; in experiment [2] it was above 100 nM. The Emax in experiment [2] was found to be 36.5%.

For the compound `CC[C@H](C)[C@H](N)C(=O)N[C@H](C(=O)N[C@@H](CC(C)C)C(=O)N[C@@H](CO)C(=O)N[C@@H](CC(C)C)C(=O)N[C@@H](CC(=O)O)C(=O)N[C@@H](C(=O)N1CCC[C@H]1C(=O)N[C@H](C(=O)N[C@@H](CCCCN)C(=O)N[C@@H](CC(C)C)C(=O)N[C@@H](CCCCNC(=O)COCCOCCNC(=O)COCCOCCNC(=O)CC[C@H](NC(=O)CCCCCCCCCCCCCCCCC(=O)O)C(=O)O)C(=O)N[C@@H](CCC(N)=O)C(=O)N[C@H](C(=O)N[C@@H](CC(C)C)C(=O)N[C@@H](CC(C)C)C(=O)N[C@@H](CCCCN)C(=O)N[C@@H](CCC(N)=O)C(=O)N[C@@H](CCC(=O)O)C(=O)N[C@@H](CCCNC(=N)N)C(=O)N[C@@H](CCC(N)=O)C(=O)N[C@@H](CCCCN)C(=O)NC(C)(C)C(=O)N[C@@H](CCC(N)=O)C(=O)N[C@@H](CCCNC(=N)N)C(=O)N[C@@H](CCC(=O)O)C(=O)N[C@@H](CCCCN)C(=O)N[C@@H](C)C(=O)N[C@@H](CCC(=O)O)C(=O)N[C@@H](CCCCN)C(=O)N[C@@H](CC(N)=O)C(=O)N[C@@H](CCCCN)C(=O)N[C@@H](CCC(N)=O)C(=O)N[C@H](C(=O)N[C@@H](CC(C)C)C(=O)N[C@@H](C)C(=O)N[C@@H](CCC(N)=O)C(=O)N[C@H](C(N)=O)C(C)C)[C@@H](C)CC)[C@@H](C)CC)[C@@H](C)CC)C(C)C)C(C)C` [compound 134] (H-IVLSLD[dV]PIKLK([AEEA-AEEA-γGlu-C18 diacid])QILLKQERQK[Aib]QREKAEKNKQILAQV-NH2; N-terminus assumed), the EC50 in experiment [1] (setting [3]) was 0.07 nM; in experiment [1] (setting [4]), 3.44 nM; in experiment [2] it was above 100 nM. The Emax in experiment [2] is -8.6%.

For the compound `CC[C@H](C)[C@H](N)C(=O)N[C@H](C(=O)N[C@@H](CC(C)C)C(=O)N[C@@H](CO)C(=O)N[C@@H](CC(C)C)C(=O)N[C@@H](CC(=O)O)C(=O)N[C@H](C(=O)N1CCC[C@H]1C(=O)N[C@H](C(=O)NCC(=O)N[C@@H](CC(C)C)C(=O)N[C@@H](CCCCNC(=O)COCCOCCNC(=O)COCCOCCNC(=O)CC[C@H](NC(=O)CCCCCCCCCCCCCCCCC(=O)O)C(=O)O)C(=O)N[C@@H](CCC(N)=O)C(=O)N[C@H](C(=O)N[C@@H](CC(C)C)C(=O)N[C@@H](CC(C)C)C(=O)N[C@@H](CCCCN)C(=O)N[C@@H](CCC(N)=O)C(=O)N[C@@H](CCC(=O)O)C(=O)N[C@@H](CCCNC(=N)N)C(=O)N[C@@H](CCC(N)=O)C(=O)N[C@@H](CCCCN)C(=O)N[C@@H](CCCCN)C(=O)NC(C)(C)C(=O)N[C@@H](CCCNC(=N)N)C(=O)N[C@@H](CCC(=O)O)C(=O)N[C@@H](CCC(N)=O)C(=O)N[C@@H](C)C(=O)N[C@@H](CCC(=O)O)C(=O)N[C@H](C(=O)N[C@@H](CC(N)=O)C(=O)N[C@@H](CCCCN)C(=O)N[C@@H](CCCNC(=N)N)C(=O)N[C@H](C(=O)N[C@@H](CC(C)C)C(=O)N[C@@H](CCC(=O)O)C(=O)N[C@@H](CCCNC(=N)N)C(=O)N[C@H](C(N)=O)C(C)C)[C@@H](C)CC)[C@@H](C)O)[C@@H](C)CC)[C@@H](C)CC)C(C)C)C(C)C` [compound 148] (H-IVLSLDVPIGLK([AEEA-AEEA-γGlu-C18 diacid])QILLKQERQKK[Aib]REQAETNKRILERV-NH2; N-terminus assumed), the EC50 in experiment [1] (setting [3]) is 0.29 nM; in experiment [1] (setting [4]), 14.3 nM; in experiment [2] it was above 100 nM. The Emax in experiment [2] amounted to 2.6%.

For the compound `CC[C@H](C)[C@H](N)C(=O)N[C@H](C(=O)N[C@@H](CC(C)C)C(=O)N[C@@H](CO)C(=O)N[C@@H](CC(C)C)C(=O)N[C@@H](CC(=O)O)C(=O)N[C@@H](C(=O)N1CCC[C@H]1C(=O)N[C@H](C(=O)N[C@@H](CCCCN)C(=O)N[C@@H](CC(C)C)C(=O)N[C@@H](CCCCNC(=O)COCCOCCNC(=O)COCCOCCNC(=O)CC[C@H](NC(=O)CCCCCCCCCCCCCCCCC(=O)O)C(=O)O)C(=O)N[C@@H](CCC(N)=O)C(=O)N[C@H](C(=O)N[C@@H](CC(C)C)C(=O)N[C@@H](CC(C)C)C(=O)N[C@@H](CCCCN)C(=O)N[C@@H](CCC(N)=O)C(=O)N[C@@H](CCC(=O)O)C(=O)N[C@@H](CCCNC(=N)N)C(=O)N[C@@H](CCC(N)=O)C(=O)N[C@@H](CCCCN)C(=O)N[C@@H](CCCCN)C(=O)NC(C)(C)C(=O)N[C@@H](CCCNC(=N)N)C(=O)N[C@@H](CCC(=O)O)C(=O)N[C@@H](CCC(N)=O)C(=O)N[C@@H](C)C(=O)N[C@@H](CCC(=O)O)C(=O)N[C@H](C(=O)N[C@@H](CC(N)=O)C(=O)N[C@@H](CCCCN)C(=O)N[C@@H](CCCNC(=N)N)C(=O)N[C@H](C(=O)N[C@@H](CC(C)C)C(=O)N[C@@H](CCC(=O)O)C(=O)N[C@@H](CCCNC(=N)N)C(=O)N[C@H](C(N)=O)C(C)C)[C@@H](C)CC)[C@@H](C)O)[C@@H](C)CC)[C@@H](C)CC)C(C)C)C(C)C` [compound 149] (H-IVLSLD[dV]PIKLK([AEEA-AEEA-γGlu-C18 diacid])QILLKQERQKK[Aib]REQAETNKRILERV-NH2; N-terminus assumed), the results for the EC50 in experiment [1] (setting [3]), in experiment [1] (setting [4]) and in experiment [2] were 0.06 nM, 2.54 nM and above 100 nM, respectively. The Emax in experiment [2] was found to be 6.6%.
